Data taken from publication PMC7956625, “Optimization and Anti-Cancer Properties of Fluoromethylketones as Covalent Inhibitors for Ubiquitin C-Terminal Hydrolase L1” (Molecules, 2021).
Where a SMILES comes first, the peptide text is derived from it. The star is where a group is joined. Cbz = O=C(OCc1ccccc1)*; CH2F = FC*

Legend:
UCHL3 = target: T1, UCHL3 (Homo sapiens, UniProt P15374); assay: KMS cell activity-based probe (HA-Ub-VME) target engagement assay; details: 0–250 µM, 4 h, UCHL3 immunoblot
T1 sequence (P15374 1-230): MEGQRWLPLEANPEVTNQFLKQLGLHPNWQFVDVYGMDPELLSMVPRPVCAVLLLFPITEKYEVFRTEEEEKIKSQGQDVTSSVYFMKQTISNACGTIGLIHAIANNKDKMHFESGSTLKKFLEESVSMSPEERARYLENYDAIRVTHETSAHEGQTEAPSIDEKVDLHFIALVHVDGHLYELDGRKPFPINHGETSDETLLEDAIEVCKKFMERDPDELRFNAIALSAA
Protocol: To confirm on-target engagement in KMS11 cells, a Ub activity-based probe (ABP) gel-shift assay was employed. Using the hemagglutinin-tagged Ub-vinylmethylester (HA-Ub-VME) ABP to examine the activity of 1 in KMS11 cells, an immunoblot was performed. Cells were treated in dose-response with 1 (0–250 µM), washed with PBS, then lysed and treated with HA-Ub-VME. The HA-Ub-VME labels any remaining DUBs that have not been inhibited by 1.
Twelve hours prior to the addition of compounds to the cells, 1.2 million KMS11 or KMS12 cells mL^−1 per well were seeded in a 12 well plate. Cells were incubated with inhibitor for 4 h before washing the cells three time with PBS to remove excess compound. Cells were harvested, pelleted, and lysed in 60 µL of lysis buffer (0.5%NP-40 in 50 mM Tris pH 7.4). HA-Ub-VME was then added to a final concentration of 1 µM and incubated for 1 h at room temperature. An equal volume of 2X Laemmli sample buffer was added, and the samples were heated to 95 °C before separating by gel electrophoresis and analyzed by immunoblot.

SW1271 cells = assay: Click reaction and in-gel fluorescence of treated SW1271 cells; format: cell-based; details: 100 µM, 4 h
Protocol: Leveraging the alkyne handle, a click reaction was performed with an azide containing sulfo-cyanine5 fluorophore (Cy5) to visualize proteins within the cells that were conjugated to either the fluoromethylketone 34 or the chloromethylketone 37. Cells were pretreated with either analog then harvested and washed to removed unreacted inhibitor. The cells were then lysed and the click reaction was performed on lysates. […] Further evaluation using proteomic profiling is warranted to gain a quantitative understanding on the potential for non-specificity at off-target cysteines.
Cells were treated with 100 µM inhibitor or DMSO for 4 h before being washed, scraped, and lysed in 200 µL of lysis buffer (1× PBS, 1% v/v Triton X-100, 0.1% w/v SDS, 1X HALT) for 30 min on ice with vigorous vortexing every 10 min. Samples were then pelleted at 17,000× g for 10 min before collecting the supernatant and measuring concentration using BCA. Samples were normalized to 2 mg/mL and stored at −80 °C overnight. The following day, samples were thawed. While thawing, a click cocktail was prepared (for each sample, the cocktail consists of: 3 µL of 1.7 mM THPTA in 1:4 tBuOH/DMSO, 1 µL of 50 mM CuSO4 in water, 1 µL of 1.25 mM Cy5-N3 in DMSO, and 1 µL of 50 mM TCEP in water freshly prepared). […] The samples were then analyzed by SDS-PAGE and imaged on a Licor Odyssey and subsequently Coomassie stained.

Row | SMILES | HA-Ub-UCHL3 complex formation in KMS11 cells (UCHL3) | proteins labelled in SW1271 cells (Cy5 click, in-gel fluorescence) (SW1271 cells)
1 | COC(=O)CC[C@H](NC(=O)[C@H](C)NC(=O)[C@@H](NC(=O)OCc1ccccc1)C(C)C)C(=O)CF [Cpd 1, benzyloxycarbonyl-Val-Ala-Glu(γ-methoxy)-fluoromethylketone] (Cbz-Val-Ala-Glu(OMe)-CH2F) | does not inhibit UCHL3 in cells | –
2 | C#Cc1ccc(COC(=O)N[C@H](C(=O)N[C@@H](C)C(=O)N[C@@H](CCC(=O)OC)C(=O)CF)C(C)C)cc1 [Cpd 34] | – | high selectivity in cells
